Experimental data reported in US10793531B2, “Triazole derivatives and their use as PDE4 activators” (MIRONID LIMITED, priority 2015, dated 2020).
Where two headings read alike, the source gives them in different places.

What was measured:
[1] = Pharmacokinetic profile in male SD rats (Experiment 8); format: in vivo, rat
Experimental: Example A was dissolved in 5% DMA+10% Solutol+85%(10% HPBCD in saline) to afford a clear dosing solution of 1 mg/mL. The dosing solution was administered to three rats at 2 mg/kg i.v. via the foot dorsal vein and to three further rats at 10 mg/kg p.o. via oral gavage. Blood samples (ca. 150 μL) were collected at 2, 5, 20 min, 1, 2, 4, 8, 12 and 24 h after i.v. dosing and at 5, 15, 30 min, 1, 2, 4, 8, 12 and 24 h after oral dosing. The blood samples were centrifuged at 4° C. (2000 g, 5 min) within 15 min of sample collection to obtain plasma samples. Plasma samples were stored at −80° C. until analysis. The samples were analysed by UPLC-MS/MS (API 4000).

[2] = test system: OX161 cells; assay: Reversal of in vitro cyst formation in OX161 cells (Experiment 10); format: cell-based, human; conditions: compound added every 2 days from day 10 to day 20, with forskolin; FIG. 13 Panel B
Experimental: In this study, the potential of PDE4 long form activators to reverse the formation of pre-formed cysts was evaluated in a human ADPKD patient-derived OX161 cell line. The experiment was carried out according to the method of Experiment 9. For the first 10 days, forskolin was added at every feed (every 2 days) but no test compound was added. For the. next 10 days, the test compound and forskolin were added at every feed (every 2 days).
Phase-contrast images were obtained every 2 days for 20 days. Per condition, 10 images were taken (in duplicate) and the average cyst area calculated.

[3] = test system: MDCK cells; assay: Reduction of intracellular cAMP levels in forskolin stimulated MDCK cells (Experiment 2); format: cell-based, canine; conditions: 10 μM compound for 10 min prior to forskolin (10 μM) for 2 min; FIG. 6
Experimental: (§1) HEK 293 and MDCK cells (Public Health England, Cell Culture Collections) were maintained in DMEM supplemented with 10% (v/v) fetal bovine serum (Seralab), 2 mM L-glutamine, 1,000 U penicillin and 1,000 μg streptomycin (Life Technologies); termed complete media. Clonal HEK 293 cell lines were maintained in complete media supplemented with 0.6 mg/mL G418 (Enzo Life Sciences).
(§2) HEK 293 or MDCK cells were seeded at 100,000 cells per well, and left to adhere overnight. The cells were then treated with the compound indicated (10 μM) for 10 minutes, prior to stimulation with forskolin (10 μM, Sigma) for 2 minutes. Media was aspirated, and hydrochloric acid (0.1M) was added to lyse the cells. The cAMP assay (Enzo Life Sciences) was performed according to the manufacturers instructions.

[4] = In vitro clearance using human hepatocytes (Experiment 6); format: in vitro ADME; conditions: human, cryopreserved human hepatocytes; 1 μM compound, 1 million cells/ml, 37° C.
Experimental: (§3) Human hepatocyte stability is considered the gold standard method for evaluating the hepatic metabolism of drugs in vitro. The in vitro clearance of Example A was evaluated using cryopreserved human hepatocytes according to the method of Lau et al. (Lau, Y. Y. et al. Drug Metab. Dispos. 30: 1446-1454, 2002) with minor modifications.
(§4) Cryopreserved hepatocytes were thawed in a water bath at 37° C. and transferred to a tube containing 50 ml of hepatocyte thaw medium. The hepatocytes were centrifuged at 500 rpm for 3 min. The supernatant was removed and the hepatocytes were resuspended in medium, mixed gently and centrifuged again at 500 rpm for 3 min. The supernatant was discarded and the hepatocyte pellet was gently resuspended in medium to a final density of 2 million cells/ml.
(§5) Incubations were carried out at a final test compound concentration of 1 μM. Stock solutions of the compounds were prepared in DMSO and diluted to the desired concentrations before adding to the hepatocytes. Incubations were carried out with a hepatocyte concentration of 1 million cells/ml. Samples (100 μL) were incubated at 37° C. for 0, 15, 30, 60 and 120 min in duplicate. At the end of the incubation time, 200 μl of acetonitrile with internal standard was added and the wells were sealed. […]
(§6) The samples were analysed by LC-MS/MS using a Sciex API 4000™ system.

[5] = test system: cryopreserved human hepatocytes; assay: as above; format: in vitro ADME; conditions: 1 μM compound, 1 million cells/ml, 37° C.
Experimental: as §3, §4, §5, §6

[6] = test system: androgen-sensitive (AS) LNCaP human prostate cancer cells; assay: Xcelligence proliferation assay, androgen-sensitive LNCaP cells (Experiment 5); format: cell-based; conditions: normalised cell index at 72 hours; FIG. 9
Experimental: In this study, the potential utility of PDE4 long form activators in the treatment of prostate cancer was studied using the LNCaP human prostate cancer cell line. The experiments were carried out according to the method described by Henderson et al. (Henderson, D. J. P., Byrne, A., Dulla, K., Jenster, G., Hoffmann, R., Baillie, G. S., Houslay, M. D. Br. J. Cancer 110: 1278-1287, 2014).
Androgen-sensitive (AS) LNCaP cells were maintained in RPMI1640 supplemented with 10% FBS (Seralabs), 2 mM L-glutamine and 1,000 U penicillin-streptomycin. LNCaP androgen-insensitive (AI) cells were generated in-house by culturing the LNCaP-AS cells in RPMI1640 supplemented with 10% charcoal stripped FBS, 2 mM L-glutamine and 1,000 U penicillin-streptomycin for a minimum of four weeks. All tissue culture reagents were, from Life Technologies.
Cell proliferation is measured as a function of changing electrical impedance. Values are represented by cell index number, a dimensionless unit of measurement representing the cell status, which increases as cells adhere to 96-well electrode plates and divide. […]
Cell indices were measured every 10 minutes for up to 100 hours, analysed using RICA software and normalised to the cell index of vehicle-treated cells (n=3).

[7] = test system: HEK 293 cells; assay: Reduction of intracellular cAMP levels in forskolin stimulated HEK 293 cells (Experiment 2); format: cell-based, human; conditions: 10 μM compound for 10 min prior to forskolin (10 μM) for 2 min; FIG. 5
Experimental: as §1, §2

CCc1nc(-c2ccc(Cl)c(F)c2)nn1CC(=O)NCc1cccc(F)c1 [Example A, N-(3-Fluorobenzyl)-2-[3-(4-chloro-3-fluorophenyl)-5-ethyl-1H-1,2,4-triazol-1-yl]acetamide]
abnormal effects observed in the rats ([1]; 2 mg/kg i.v. or 10 mg/kg p.o.): No abnormal effects were observed
half-life ([1]; rat, iv, 2 mg/kg i.v., plasma, read-out: terminal half life after i.v. dosing (converted)): 2.2 h
bioavailability ([1]; rat, oral, 10 mg/kg p.o. vs 2 mg/kg i.v., plasma): 100%
half-life ([1]; rat, po, 10 mg/kg p.o., plasma, read-out: terminal half life after oral dosing (converted)): 9.1 h
in vitro cyst formation in OX161 cells, reversal (in words) [2]: reversed in vitro cyst formation
intracellular cAMP levels in MDCK cells (in words) [3]: reduction in intracellular cAMP levels
half-life at 1 μM [4]: 0.9 h
stability in human hepatocytes (in words) [5]: moderately stable
proliferation of androgen-sensitive (AS) LNCaP cells (in words) [6]: inhibits the proliferation
intracellular cAMP levels in HEK293 cells (in words) [7]: reduction in intracellular cAMP levels
